This is an account of results in patent US20250241863A1, “COMPOSITIONS AND METHODS FOR TARGETED DELIVERY OF THERAPEUTIC AND/OR DIAGNOSTIC SPECIES” (THE PENN STATE RESEARCH FOUNDATION, priority 2017, published 2025).

The test system of data set [1] is Ras-induced keratinocyte lung cancer cells. Kind of data set: anti-cancer effects of released miRN-148b in Ras-induced keratinocyte cells (FIG. 24). It is filed as cell-based. The conditions noted are these: keratinocyte cells transfected with 100 nM, after 7 days. As to the method:
(§1) The anti-cancer effects towards Ras-induced keratinocyte lung cancer cells of miRN-148b released from compositions described herein were explored using a furan-based linker conjugated with a FAM-tagged miRN-148b and an SNP. The furan-based linker composition was prepared according to Examples 1-5. SNPs surface-modified with miRNA mimics via Diels-Alder linkage, were sterilized in 70/30% ethanol and water solution prior to washing and resuspension in RNAse-free water. Subsequently, appropriate nanoparticle solution volumes were added, based on required dosages, to the adherent monolayer PAM2 cells at optimal seeding densities, immersed in appropriate cell culture media. Transfection was allowed to occur at 37° C. for 24 h.
FIG. 24A is a negative control of keratinocyte cells in the absence of the composition and FAM-tagged miRN-148b after 7 days. FIG. 24B is a positive control of keratinocyte cells after 7 days, which have been transfected with FAM-tagged miRN-148b (100 nM).

Another data set has as its system PAM2 skin cancer cells. Kind of data set: anti-cancer effects of released miRN-148b in PAM2 cells (FIG. 23). The data set is classed as cell-based. The conditions noted are these: PAM2 cells transfected, 7 days after transfection (positive control). The protocol: as §1, with “PAM2 skin” for “Ras-induced keratinocyte lung”
FIG. 23A is a negative control showing fluorescence of the PAM2 cells in the presence of silver nanoparticles prepared in accordance with Example 1 after 7 days. FIG. 23B is a positive control showing PAM2 cells transfected with FAM-tagged miRN-148b 7 days after transfection.

Data set [2] is described as follows: activation temperature of the retro Diels-Alder reaction of the linker groups (FIG. 7). It is filed as physicochemical. The conditions noted are these: linker group in FIG. 7. An excerpt:
(§2) For different Diels-Alder cyclo-addition products, the retro (or reverse) Diels-Alder reaction will occur or be initiated at different temperatures (i.e., different activation temperatures). Thus, by varying the Diels-Alder cyclo-addition product in the linker group, breaking up or cleaving of the Diels-Alder cyclo-addition product (and concomitant decoupling of the therapeutic species and the nanoparticle) can be “tuned” to occur at different temperatures.

Data set [3] in a line: temperature dependency of retro Diels-Alder reaction (release of fluorescent si-RNA) for linker connected to a nanoparticle (FIGS. 10, 11). It is filed as physicochemical. The conditions noted are these: for cleavage of the linker: linker connected to a nanoparticle.
From the text: as §2
Specifically, to conjugate a FAM-tagged RFP antisense siRNA mimic, an EDC coupling protocol was used with […] of an aqueous EDC/NHS (100 mM) stock solution added to each of the three resuspended nanoparticle aliquots prepared in Example 3, followed by […] of the amine-terminated siRNA (4 mM), After 24 h, the particles were again centrifuged, washed, and resuspended in DI water. A control sample in which cysteamine modified SNPs were linked to the 6-maleimidohexanoic acid via EDC coupling was also prepared, similarly to the pyrrole-based reaction described above, but without addition of the diene, to test the stability of both the amide and thiol linkages. Conjugation of the linkers and siRNA was tested by chemically reducing the Ag-linker bond using TCEP reagent (tris(2-carboxyethyl)phosphine hydrochloride) and measuring FAM intensity of the supernatant.
The products of these reactions (pyrrole, furan, and thiophene-based) were analyzed. For example, the temperature dependency of the retro Diels Alder reaction (and release of the fluorescent si-RNA) was evaluated. […] The fluorescence intensity of the treated sample is assumed to indicate maximum release (due to cleavage/retro (or reverse) Diels Alder reaction).

{FAM} = fluorescein (FAM) label; {NH2} = amine modification

Regarding “FAM-tagged miRN-148b: 3′amine/5′-FAM modified single stranded siRNA, sequence UUGGAGCCGUACUGGAACUUG (5' {FAM}, 3' {NH2}, sugars by position and backbone not given here)”, the cell growth result in data set [1] is given as “normal cell behavior”. Also, the “cell proliferation and growth” value with PAM2 skin cancer cells was “reduced cell proliferation and growth”.
For `O=C(O)CCCCCN1C(=O)C2C3C=CC(C(=O)O)(N3)C2C1=O` (centres unmarked) [pyrrole-based linker group], in data set [2], the “activation temperature of the retro Diels-Alder reaction” value (shortened to “activation temperature”) amounted to 40 °C.
Regarding `O=C(O)CCCCCN1C(=O)C2C3C=CC(CS)(O3)C2C1=O` (centres unmarked) [furan-based linker group], the “speed of cleavage of the linker compared with the thiophene-based linker” value in data set [3] (FIGS. 10 and 11) is recorded as “faster at lower temperatures”. Moreover, the “cleavage of the linker” value in data set [3] (after 1 hour of heating, at 60° C.) is listed as 25%. In data set [2], the “activation temperature” value came to 60 °C.
As to `O=C(O)CCCCCN1C(=O)C2C3C=CC(CS)(S3)C2C1=O` (centres unmarked) [thiophene-based linker group], the “cleavage of the linker” value in data set [3] (after 2 hours of heating at 37° C., 60° C., and 80° C.) is “not observed until 80 °C”. In addition, the “activation temperature” value in data set [2] was “around 80 °C”.
